“Also recorded” adds a separate entry of the source.
Columns and labels:
bacteria = conditions: cited from earlier work; for antibacterial activity, previously shown: control peptides, for caerin 1.3 against most of the bacteria tested
Text: Its sequence is shown here for comparison with the synthetically modified caerin 1.1 peptide. Amino acid modifications to the caerin 1.1 and to the caerin 1.9 peptides are shown in bold type with gray shading. All of the peptides studied have many simil ...

[1] = system: Lactobacillus crispatus, ATCC 33197; assay: Bacterial growth assay, Lactobacillus crispatus; type: cell-based; conditions: 24 h, 37 °C, O.D. 630 nm; for effect on L. crispatus growth, result in words: peptide tested at 0.4 or 0.8 to 50 µM; for inhibition of L. crispatus growth at highest concentration: 50 µM peptide, MRS broth; for inhibition of L. crispatus growth at lower concentrations: concentrations of 25 µM or less
Description: (§1) Bacterial strains were obtained from the American Type Culture Collection (Lactobacillus crispatus, ATCC® 33197™; Lactobacillus rhamnosus, ATCC® 39595™; Neisseria lactamica (ATCC® 23970™). Growth assays were conducted to determine the concentrations at which each peptide inhibited the growth of the three bacterial species. The Lactobacillus bacteria were grown in de Man, Rogosa, and Sharpe (MRS) broth and the N. lactamica in Fastidious Broth. Bacterial cells were cultured in broth for 24 to 48 h until they reached an optical density of about 0.1 O.D. units at 630 nm and diluted to achieve a concentration of 10^6 cells per mL. The peptides were serially diluted with sterile water to reach peptide concentrations of 0.4, 0.8, 1.6, 3.12, 6.25, 12.5, 25, and 50 µM final concentrations in culture. The bacterial cells at 10^6 cells/mL and the peptides were plated in triplicate in a 96-well plate. Included was a negative control for growth (three to five replicates of bacteria plus penicillin-streptomycin), a positive control for growth (three to five replicates of bacteria plus water), and a blank (three to five replicates of broth plus water) to ensure the broth was not contaminated. Bacterial cells were plated in 50 µL of broth, and each dilution of peptides was added in a volume of 50 µL to achieve a total volume of 100 µL. For the positive control, 50 µL of sterile water was added to 50 µL of cells in broth. For the negative control, 50 µL of the antibiotic solution was added to 50 µL of cells in broth. The O.D. of each well was recorded before and after a 24-h incubation period at 37 °C using a Biotek ELx808 reader (Biotek, Winooski, VT, USA). Data for representative experiments are expressed as average O.D. ± standard error of the mean at each peptide concentration. To express data from replicate experiments, the average as percent growth in comparison with the positive (no peptide) control set at 100% for the range of concentrations from 6.25–50 µM is shown. […] A p-value of less than 0.05 was considered significant.

HIV = conditions: cited from earlier work; for inhibition of HIV infection, result in words: percent HIV infection of target T cells, 6.25–25 µM, replotted from a previous publication
Text: Its sequence is shown here for comparison with the synthetically modified caerin 1.1 peptide. Amino acid modifications to the caerin 1.1 and to the caerin 1.9 peptides are shown in bold type with gray shading. […] Thus, we first tested these four peptides for effects on growth of L. rhamnosus. […] To evaluate both parameters at once, we plotted the patterns of inhibition of HIV infection from a previous publication on the same axes as the new data for effects on L. rhamnosus and L. crispatus growth. […] Among all of the ...

[2] = system: Lactobacillus rhamnosus, ATCC 39595; assay: Bacterial growth assay, Lactobacillus rhamnosus; type: cell-based; conditions: for inhibition of L. rhamnosus growth, result in words: peptide tested at 0.4 or 0.8 to 50 µM; for reduction of L. rhamnosus growth: vs no-peptide control; for inhibition of L. rhamnosus growth at highest concentration: 50 µM peptide (50 µm [sic]), one-way ANOVA with Tukey's post hoc test; for viability as measured by 24-h growth of L. rhamnosus: range of concentrations 0.4–25 µM
Description: as §1

[3] = system: Neisseria lactamica (ATCC 23970); assay: Bacterial growth assay, Neisseria lactamica; type: cell-based; conditions: tested twice; 0.8 to 50 µM; 24 h, 37 °C
Description: Bacterial strains were obtained from the American Type Culture Collection (Lactobacillus crispatus, ATCC® 33197™; Lactobacillus rhamnosus, ATCC® 39595™; Neisseria lactamica (ATCC® 23970™). Growth assays were conducted to determine the concentrations at which each peptide inhibited the growth of the three bacterial species. The Lactobacillus bacteria were grown in de Man, Rogosa, and Sharpe (MRS) broth and the N. lactamica in Fastidious Broth. Bacterial cells were cultured in broth for 24 to 48 h until they reached an optical density of about 0.1 O.D. units at 630 nm and diluted to achieve a concentration of 10^6 cells per mL. The peptides were serially diluted with sterile water to reach peptide concentrations of 0.4, 0.8, 1.6, 3.12, 6.25, 12.5, 25, and 50 µM final concentrations in culture. The bacterial cells at 10^6 cells/mL and the peptides were plated in triplicate in a 96-well plate. […] The O.D. of each well was recorded before and after a 24-h incubation period at 37 °C using a Biotek ELx808 reader (Biotek, Winooski, VT, USA). Data for representative experiments are expressed as average O.D. ± standard error of the mean at each peptide concentration. […]

[4] = system: T lymphocytes or endocervical cell lines; conditions: cited from earlier work
[5] = 25 µM peptide, MRS broth, 24 h, 37 °C, O.D. 630 nm

Substance	antibacterial activity, previously shown (bacteria)	effect on L. crispatus growth, result in words [1]	inhibition of HIV infection, result in words (HIV)	inhibition of L. rhamnosus growth, result in words ([2]; 24 h, 37 °C, O.D. 630 nm)	antibacterial spectrum (bacteria)	inhibition of HIV (transmission), previous studies (HIV)	inhibition of L. crispatus growth at highest concentration [1]	inhibition of L. crispatus growth at lower concentrations [1]	inhibition of N. lactamica growth, comparison in words [3]	toxicity to T lymphocytes or endocervical cell lines [4]	reduction of L. rhamnosus growth [2, 5]	inhibition of L. rhamnosus growth at highest concentration ([2]; 24 h, 37 °C, O.D. 630 nm)	viability as measured by 24-h growth of L. rhamnosus [2]	average bacterial growth of L. rhamnosus ([2]; 25 µM peptide, percent growth vs no-peptide control set at 100%, 10^6 cells/mL, MRS broth, 24 h, 37 °C, O.D. 630 nm, average of replicate experiments)
GLLSSLSSVAKHVLPHVVPVIAEHL-NH2 [caerin 1.4, caerin 1 antimicrobial peptide, origin L. caerulea, L. gilleni; control peptide]	reduced antibacterial activity	largely unaffected; also recorded: very limited inhibition of both species of lactobacilli	inhibited HIV less than caerin 1.9	very limited inhibition of both species of lactobacilli; also recorded: almost no inhibition at any dose tested										
GLLSVLGSVAKHVLPHVVPVIAEHL-NH2 [caerin 1.1, antimicrobial peptide from Litoria caerulea, reference compound]					wide-spectrum anti-bacterial agents	less effective in the inhibition of HIV transmission than other caerin family peptides								
GLLGVLGSVAKHVLPHVVPVIAEHL-NH2 [caerin 1.2, caerin 1 antimicrobial peptide, origin L. caerulea]			effective inhibitors of HIV infection		wide-spectrum anti-bacterial agents	very effective inhibitors of HIV	inhibitory	almost no inhibition	less effective against N. lactamica than caerin 1.9 and caerin 1.10	limited toxicity	40–55%	significantly inhibited growth	remained quite high	
GLLSVLGSVAKHVLPHVVPVIAAAL-NH2 [caerin 1.1 mod 7, synthetically modified caerin 1.1 peptide]			equal or greater inhibition of HIV infection than caerin 1.9	inhibited the growth of L. rhamnosus more than caerin 1.9; also recorded: inhibited growth to a greater extent than the previous four										
GLFGVLGSIAKHLLPHVVPVIAEKL-NH2 [caerin 1.9 sm, synthetic analog of caerin 1.9 with a single amino acid change]			equal or greater inhibition of HIV infection than caerin 1.9	inhibited the growth of L. rhamnosus more than caerin 1.9; also recorded: inhibited growth to a greater extent than the previous four										
GLLSVLGSVAKHVLPHVVPVIAEKL-NH2 [caerin 1.10, caerin 1 antimicrobial peptide, origin L. splendida]			effective inhibitors of HIV infection		wide-spectrum anti-bacterial agents	very effective inhibitors of HIV	no inhibition			limited toxicity	40–55%	significantly inhibited growth	remained quite high	
GLLSVLGSVAQHVLPHVVPVIAEHL-NH2 [caerin 1.3, caerin 1 antimicrobial peptide, origin L. caerulea; control peptide]	reduced antibacterial activity	largely unaffected; also recorded: very limited inhibition of both species of lactobacilli	inhibited HIV less than caerin 1.9	very limited inhibition of both species of lactobacilli; also recorded: almost no inhibition at any dose tested										
GLFGILGSVAKHVLPHVIPVVAEHL-NH2 [caerin 1.20, caerin 1 antimicrobial peptide, origin L. caerulea/L. splendida]			slightly less effective in the inhibition of HIV	slightly more inhibitory against L. rhamnosus than caerin 1.9	wide-spectrum anti-bacterial agents	very effective inhibitors of HIV				limited toxicity	40–55%	significantly inhibited growth	remained quite high	
GLFGVLGSIAKHVLPHVVPVIAEKL-NH2 [caerin 1.9, caerin 1 antimicrobial peptide, origin L. chloris]		least apparent inhibition of growth of both tested lactobacilli	best profile of inhibition of HIV	least apparent inhibition of growth of both tested lactobacilli	wide-spectrum anti-bacterial agents	very effective inhibitors of HIV	inhibitory	almost no inhibition		limited toxicity		significantly inhibited growth	remained quite high	about 83%

Source: paper PMC7600266, “Caerin 1 Antimicrobial Peptides that Inhibit HIV and Neisseria May Spare Protective Lactobacilli” (Antibiotics, 2020)
